Assay results reported in the NIST ThermoML archive (doi:10.1016/j.jct.2012.05.008).
± gives the expanded uncertainty stated by the source.

Assay: xn = mol fraction of the nth substance listed
Conditions: Liquid, Vibrating tube method, x2 = 0.3333

NC(N)=O [urea] + C[N+](C)(C)CCO.[Cl-]
mass density [kg/m3]
Conditions	298.15 K	303.15 K	308.15 K	313.15 K	318.15 K	323.15 K
100 kPa	1197.9 ± 2.7	1195.1 ± 2.7	1192.2 ± 2.6	1189.3 ± 2.6	1186.4 ± 2.6	1183.5 ± 2.6
5000 kPa	1199.3 ± 2.7	1196.4 ± 2.7	1193.6 ± 2.7	1190.7 ± 2.7	1187.8 ± 2.6	1184.9 ± 2.6
10000 kPa	1200.6 ± 2.7	1197.9 ± 2.7	1194.9 ± 2.7	1192 ± 2.7	1189.2 ± 2.7	1186.3 ± 2.7
15000 kPa	1201.9 ± 2.7	1199.1 ± 2.7	1196.3 ± 2.7	1193.4 ± 2.7	1190.5 ± 2.7	1187.6 ± 2.7
20000 kPa	1203.3 ± 2.7	1200.4 ± 2.7	1197.6 ± 2.7	1194.7 ± 2.7	1191.9 ± 2.7	1189 ± 2.7
25000 kPa	1204.6 ± 2.8	1201.8 ± 2.8	1198.9 ± 2.7	1196.1 ± 2.7	1193.2 ± 2.7	1190.4 ± 2.7
30000 kPa	1205.9 ± 2.8	1203.1 ± 2.8	1200.3 ± 2.8	1197.4 ± 2.8	1194.6 ± 2.7	1191.6 ± 2.7
35000 kPa	1207.1 ± 2.8	1204.4 ± 2.8	1201.5 ± 2.8	1198.7 ± 2.8	1195.8 ± 2.8	1193 ± 2.8
40000 kPa	1208.3 ± 2.8	1205.6 ± 2.8	1202.8 ± 2.8	1200 ± 2.8	1197.1 ± 2.8	1194.2 ± 2.8
45000 kPa	1209.5 ± 2.9	1206.8 ± 2.8	1204 ± 2.8	1201.2 ± 2.8	1198.3 ± 2.8	1195.5 ± 2.8
50000 kPa	1210.7 ± 2.9	1208 ± 2.9	1205.1 ± 2.9	1202.3 ± 2.8	1199.5 ± 2.8	1196.7 ± 2.8
